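Following 48 hours of exposure in 96-well plates, responses at five concentrations were used to interpolate endpoints linearly. GI50 = concentration required for 50% inhibition of growth.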 Calls of active or inactive are those of the source. No stated cut-off is given here; in the data, active = GI50 up to about 1.1 µM and inactive = higher.
Legend:
Assay in all cases: NCI anticancer screen, dose series, 48 h
A549 = system: A549
CCRF-CEM = system: CCRF-CEM
HCC 2998 = system: HCC 2998
HCT-116 = system: HCT-116
HOP-62 = system: HOP-62
LOX IMVI = system: LOX IMVI
NCI-H226 = system: NCI-H226
NCI-H23 = system: NCI-H23
OVCAR-4 = system: OVCAR-4
SF-268 = system: SF-268
SF-295 = system: SF-295
SF-539 = system: SF-539
SK-MEL-28 = system: SK-MEL-28
SK-MEL-5 = system: SK-MEL-5
SNB-19 = system: SNB-19
U-251 = system: U-251
UACC-62 = system: UACC-62
UO-31 = system: UO-31
HCT-15 = system: HCT-15
HOP-92 = system: HOP-92

SMILES	GI50 (A549)	GI50 (CCRF-CEM)	GI50 (HCC 2998)	GI50 (HCT-116)	GI50 (HOP-62)	GI50 (LOX IMVI)	GI50 (NCI-H226)	GI50 (NCI-H23)	GI50 (OVCAR-4)	GI50 (SF-268)	GI50 (SF-295)	GI50 (SF-539)	GI50 (SK-MEL-28)	GI50 (SK-MEL-5)	GI50 (SNB-19)	GI50 (U-251)	GI50 (UACC-62)	GI50 (UO-31)	GI50 (HCT-15)	GI50 (HOP-92)
COc1ccc(N2C(=O)/C(=C(\C)c3cc4ccccc4oc3=O)N=C2c2cc([N+](=O)[O-])ccc2Cl)cc1	34.9 µM (inactive)	32.5 µM (inactive)	43.5 µM (inactive)	29.9 µM (inactive)	> 100 µM (inactive)	34.5 µM (inactive)	> 100 µM (inactive)	11.2 µM (inactive)	38.4 µM (inactive)	28.7 µM (inactive)	17.1 µM (inactive)	29.9 µM (inactive)	66.4 µM (inactive)	30.6 µM (inactive)	32.7 µM (inactive)	48.1 µM (inactive)	26.6 µM (inactive)	46.9 µM (inactive)		
O=c1ccn([C@@H]2C=C(CO)[C@@H](O)[C@H]2O)c(=O)[nH]1	> 625 µM (inactive)	> 625 µM (inactive)	> 625 µM (inactive)	> 625 µM (inactive)	> 625 µM (inactive)	> 625 µM (inactive)	> 625 µM (inactive)	> 625 µM (inactive)	> 625 µM (inactive)	> 625 µM (inactive)	> 625 µM (inactive)	> 625 µM (inactive)	> 625 µM (inactive)	> 625 µM (inactive)	> 625 µM (inactive)	> 625 µM (inactive)	> 625 µM (inactive)	> 625 µM (inactive)	> 625 µM	> 625 µM (inactive)
COc1ccc(C2COc3cc(OC(C)=O)c(OC(C)=O)cc3C2)cc1 (stereo unspecified)	11.9 µM (inactive)	3.09 µM (inactive)	23.2 µM (inactive)	20.4 µM (inactive)	31.6 µM (inactive)	16.5 µM (inactive)	24.3 µM (inactive)	27.5 µM (inactive)	16.7 µM (inactive)	12.3 µM (inactive)	14.1 µM (inactive)	19.9 µM (inactive)	23.8 µM (inactive)	25.9 µM (inactive)	7.74 µM (inactive)	6.49 µM (inactive)	19 µM (inactive)	19.5 µM (inactive)	20.3 µM	9.08 µM (inactive)
CCOP(=O)(COCCn1ncc(=O)[nH]c1=O)OCC	> 100 µM (inactive)	> 100 µM (inactive)	> 100 µM (inactive)		> 100 µM (inactive)	> 100 µM (inactive)	> 100 µM (inactive)	> 100 µM (inactive)		> 100 µM (inactive)		> 100 µM (inactive)	> 100 µM (inactive)	> 100 µM (inactive)	> 100 µM (inactive)	> 100 µM (inactive)		> 100 µM (inactive)	> 100 µM	> 100 µM (inactive)
COc1cccc2c1C(=O)c1c(O)c3c(c(O)c1C2=O)C[C@@](O)(C(=O)CN1CCOCC1)C[C@@H]3OC1CC(N)C(O)C(C)O1 (stereo partly specified)	2.43 µM (inactive)		5.73 µM (inactive)	1.89 µM (inactive)	2.48 µM (inactive)	2.09 µM (inactive)	1.85 µM (inactive)	5.3 µM (inactive)	9.53 µM (inactive)	4.47 µM (inactive)	3.72 µM (inactive)	4.09 µM (inactive)	12.2 µM (inactive)	3.11 µM (inactive)	2.62 µM (inactive)	2.12 µM (inactive)	3.58 µM (inactive)	19 µM (inactive)	12.4 µM	
CCCCN(C)/N=N/c1[nH]cnc1C(N)=O	> 100 µM (inactive)	52.4 µM (inactive)	> 94.4 µM (inactive)	> 100 µM (inactive)		36.7 µM (inactive)	> 100 µM (inactive)	> 100 µM (inactive)	68.9 µM (inactive)	> 100 µM (inactive)	> 94.2 µM (inactive)	> 100 µM (inactive)	> 100 µM (inactive)	> 100 µM (inactive)	> 100 µM (inactive)	> 100 µM (inactive)	57.1 µM (inactive)	> 100 µM (inactive)	> 100 µM	47.6 µM (inactive)
O=C1C2=C(C3=NCCc4c[nH]c1c43)c1c(cc(Br)c(O)c1Br)CCN2	18.6 µM (inactive)	2.56 µM (inactive)	5.55 µM (inactive)	14.5 µM (inactive)	25.3 µM (inactive)	6.67 µM (inactive)	16.5 µM (inactive)	13.4 µM (inactive)	11 µM (inactive)	9.25 µM (inactive)	7.13 µM (inactive)	13.5 µM (inactive)	17.2 µM (inactive)	9.1 µM (inactive)	17.9 µM (inactive)	11.9 µM (inactive)	3.47 µM (inactive)	18.2 µM (inactive)	11.5 µM	20.6 µM (inactive)
COc1ccc(/C=c2\sc3n(c2=O)CCN=3)cc1	> 100 µM (inactive)	96.2 µM (inactive)	62.4 µM (inactive)	> 100 µM (inactive)	> 100 µM (inactive)	64.7 µM (inactive)		> 100 µM (inactive)	> 100 µM (inactive)		> 100 µM (inactive)	> 100 µM (inactive)	> 100 µM (inactive)	80 µM (inactive)		> 100 µM (inactive)	> 100 µM (inactive)	> 100 µM (inactive)	> 100 µM	29.8 µM (inactive)
CN1COCN/C1=N/C#N	> 100 µM (inactive)	> 100 µM (inactive)	> 100 µM (inactive)	> 100 µM (inactive)	> 100 µM (inactive)	> 100 µM (inactive)	> 100 µM (inactive)		> 100 µM (inactive)	> 100 µM (inactive)	> 100 µM (inactive)	> 100 µM (inactive)	> 100 µM (inactive)		> 100 µM (inactive)		> 100 µM (inactive)	> 100 µM (inactive)	> 100 µM	
NCCCN(CCCN)CCN(CCN(CCCN)CCCN)CCN(CCCN)CCCN	> 100 µM (inactive)	> 10 µM (inactive)	> 100 µM (inactive)	> 100 µM (inactive)	> 100 µM (inactive)	67.8 µM (inactive)	> 100 µM (inactive)	> 100 µM (inactive)	> 100 µM (inactive)		55.6 µM (inactive)		> 100 µM (inactive)	> 100 µM (inactive)	> 100 µM (inactive)	66.1 µM (inactive)		> 100 µM (inactive)	> 100 µM	82.2 µM (inactive)
CC1=NCCc2cc3[nH]c4ccccc4c3cc21	33.2 µM (inactive)	12.5 µM (inactive)	24 µM (inactive)	12.8 µM (inactive)	49.3 µM (inactive)	12.6 µM (inactive)	15.2 µM (inactive)	33 µM (inactive)	47.5 µM (inactive)	22.1 µM (inactive)	13.4 µM (inactive)	12.6 µM (inactive)	10.7 µM (inactive)	11.8 µM (inactive)	49.1 µM (inactive)	22.7 µM (inactive)	14.3 µM (inactive)	17.6 µM (inactive)	21.7 µM	0.897 µM (active)
COc1ccccc1OCC(COC(=O)Nc1ccccc1)OC(=O)Nc1ccccc1 (stereo unspecified)	50.6 µM (inactive)	> 100 µM (inactive)	> 100 µM (inactive)	61.1 µM (inactive)	56.6 µM (inactive)	25.9 µM (inactive)	36.2 µM (inactive)	73.1 µM (inactive)	55.3 µM (inactive)	57.5 µM (inactive)	39.1 µM (inactive)	17.2 µM (inactive)	> 100 µM (inactive)	79.3 µM (inactive)	31.5 µM (inactive)	41.4 µM (inactive)	32.6 µM (inactive)	49.3 µM (inactive)	> 100 µM	6.25 µM (inactive)
CCOC(=O)c1ccc(N(CCOS(C)(=O)=O)CCOS(C)(=O)=O)cc1	53 µM (inactive)	23.9 µM (inactive)	60.3 µM (inactive)	30.1 µM (inactive)		48.4 µM (inactive)		43.3 µM (inactive)	35.7 µM (inactive)	26.1 µM (inactive)	51.1 µM (inactive)	25.1 µM (inactive)	> 100 µM (inactive)	42.2 µM (inactive)	90.6 µM (inactive)	35.9 µM (inactive)	27.8 µM (inactive)	20.5 µM (inactive)	40.9 µM	37.6 µM (inactive)
C/C=C1\C[C@@H]2C(OC)Nc3cc(O)c(OC)cc3C(=O)N2C1 (stereo partly specified)	< 0.01 µM (active)	< 0.01 µM (active)	0.0158 µM (active)	< 0.01 µM (active)	< 0.01 µM (active)	< 0.01 µM (active)	0.0223 µM (active)		< 0.01 µM (active)	< 0.01 µM (active)	< 0.01 µM (active)	< 0.01 µM (active)	< 0.0107 µM (active)	< 0.01 µM (active)	0.0074 µM (active)	< 0.01 µM (active)	< 0.01 µM (active)	< 0.01 µM (active)	< 0.01 µM	< 0.01 µM (active)
C[C@H]1O[C@@H](O[C@H]2[C@@H](O)C[C@H](O[C@H]3[C@@H](O)C[C@H](O[C@H]4CC[C@@]5(C)[C@H](CC[C@@H]6[C@@H]5CC[C@]5(C)[C@@H](C7=CC(=O)OC7)CC[C@]65O)C4)O[C@@H]3C)O[C@@H]2C)C[C@H](O)[C@@H]1O [DIGITOXIN]	< 0.0157 µM (active)	< 0.0199 µM (active)	0.171 µM (active)	0.0165 µM (active)	< 0.0199 µM (active)		0.0635 µM (active)	0.0185 µM (active)	0.0199 µM (active)	< 0.0241 µM (active)	0.0258 µM (active)	< 0.0123 µM (active)	0.092 µM (active)	< 0.0212 µM (active)	0.075 µM (active)		0.0579 µM (active)	0.0414 µM (active)	0.0305 µM	0.0422 µM (active)

Reference: ChEMBL document CHEMBL1201862, “PubChem BioAssay data set” (2004)
